The source of these data is patent EP4741386A1 (Jiangsu Yahong Meditech Co., Ltd., priority 2023, dated 2025).

Experiment [1] relates to MDA-MB-436. In words: CTG experiment for cell viability (CellTiter-Glo, 96-well plate, 7 days). The class given is cell-based. Conditions: MDA-MB-436 cells, 7 days culture with compound. The essentials:
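Viability was read by CellTiter-Glo luminescence after 10 min at room temperature, once the compound-containing medium had been replaced with PBS. Before that, MDA-MB-436 cells grown in DMEM were exposed to compounds for 7 days at 37°C. Curve fitting followed the enzyme assay method.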

Experiment [2] has as its target T1, Recombinant human His6-USP1/His6-UAF1 complex protein (Homo sapiens, UniProt O94782).
T1 construct: His6; purchased R&D E-568-050
The experiment in a line: In vitro inhibitory activity against USP1 (Ubiquitin Rhodamine 110 fluorescence detection, 384-well plate). The class given is biochemical. The conditions noted are these: Ub-Rho substrate, 1 hour pre-incubation, read after 30 minutes. The procedure, abridged:
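Compounds, kept as 50 mM DMSO stocks, were acoustically dispensed into modified Tris buffer. Inhibition of recombinant human His6-USP1/His6-UAF1 was read by fluorescence from cleavage of Ub-Rho110 substrate.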

[3] abbreviates: Homo sapiens, MDA-MB-436, 168 h.

T1 sequence (O94782 whole entry): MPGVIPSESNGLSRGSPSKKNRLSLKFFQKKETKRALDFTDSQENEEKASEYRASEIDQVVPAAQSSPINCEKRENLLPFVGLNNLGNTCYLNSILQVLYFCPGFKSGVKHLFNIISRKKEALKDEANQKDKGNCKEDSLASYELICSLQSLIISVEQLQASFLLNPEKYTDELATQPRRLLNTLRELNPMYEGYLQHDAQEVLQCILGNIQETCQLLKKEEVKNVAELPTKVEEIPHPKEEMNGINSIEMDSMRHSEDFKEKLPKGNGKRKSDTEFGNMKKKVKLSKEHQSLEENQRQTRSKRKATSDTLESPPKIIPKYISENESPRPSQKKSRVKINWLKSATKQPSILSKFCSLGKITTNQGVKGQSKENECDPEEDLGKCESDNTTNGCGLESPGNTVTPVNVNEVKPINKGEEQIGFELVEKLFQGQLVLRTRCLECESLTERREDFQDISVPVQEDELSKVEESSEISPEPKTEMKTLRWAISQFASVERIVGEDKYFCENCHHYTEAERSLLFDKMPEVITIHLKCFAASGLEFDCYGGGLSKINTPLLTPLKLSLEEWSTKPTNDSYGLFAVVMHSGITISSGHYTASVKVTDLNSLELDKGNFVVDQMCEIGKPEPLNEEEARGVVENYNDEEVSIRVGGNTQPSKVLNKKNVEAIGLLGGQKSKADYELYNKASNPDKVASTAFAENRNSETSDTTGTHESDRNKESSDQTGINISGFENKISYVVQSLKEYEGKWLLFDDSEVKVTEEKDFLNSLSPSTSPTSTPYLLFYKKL
T1 sequence (Q8TAF3 whole entry partner): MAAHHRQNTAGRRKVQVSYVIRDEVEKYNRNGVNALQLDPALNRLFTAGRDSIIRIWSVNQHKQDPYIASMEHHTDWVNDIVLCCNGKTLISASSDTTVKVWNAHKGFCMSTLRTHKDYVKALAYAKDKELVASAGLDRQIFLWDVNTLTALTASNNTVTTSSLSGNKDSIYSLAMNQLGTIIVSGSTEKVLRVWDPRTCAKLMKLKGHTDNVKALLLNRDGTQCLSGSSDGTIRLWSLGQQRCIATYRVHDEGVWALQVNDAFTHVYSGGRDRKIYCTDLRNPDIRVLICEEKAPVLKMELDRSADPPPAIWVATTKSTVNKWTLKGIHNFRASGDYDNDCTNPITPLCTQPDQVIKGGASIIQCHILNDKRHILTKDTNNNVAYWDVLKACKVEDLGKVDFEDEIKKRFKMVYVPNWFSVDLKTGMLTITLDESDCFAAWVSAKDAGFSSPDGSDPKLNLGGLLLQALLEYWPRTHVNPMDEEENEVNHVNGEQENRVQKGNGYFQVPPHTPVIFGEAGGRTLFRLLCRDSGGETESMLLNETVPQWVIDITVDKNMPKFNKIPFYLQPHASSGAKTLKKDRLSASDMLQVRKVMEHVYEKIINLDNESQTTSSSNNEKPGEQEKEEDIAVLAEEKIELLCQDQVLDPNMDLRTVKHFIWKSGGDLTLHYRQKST

In general, IC50 refers to the concentration that gives 50% inhibition. `Cn1cc(C(F)(F)F)nc1-c1ccc(CNc2nc(-c3cncnc3C3CC3)nc3ccoc23)cc1` [Example 196, 2-(4-Cyclopropylpyrimidin-5-yl)-N-(4-(1-methyl-4-(trifluoromethyl)-1H-imidazol-2-yl)benzyl)furo[3,2-d]pyrimidin-4-amine]: the IC50 is 0.0821 µM in experiment [1] (setting [3]) and 0.012 µM in experiment [2].
Take `COc1cnc(-c2cccnc2C(C)C)nc1NCc1ccc(-n2nc(C(F)(F)F)cc2C)cc1` [Example 158, 2-(2-Isopropylpyridin-3-yl)-5-methoxy-N-(4-(5-methyl-3-(trifluoromethyl)-1H-pyrazol-1-yl)benzyl)pyrimidin-4-amine]: the results for the IC50 in experiment [1] (setting [3]) and in experiment [2] were 0.0123 µM and 0.0021 µM, respectively.
Turning to `COc1cnc(-c2c(OC)ncnc2C2CC2)nc1NCC12CCC(c3ccc(C(F)(F)F)cn3)(CC1)CC2` [Example 28], the IC50 in experiment [1] (setting [3]) was found to be 0.0558 µM; in experiment [2], 0.033 µM.
The matching figures for `COc1ncnc(C2CC2)c1-c1ncc(OC(C)C)c(N(C)Cc2ccc(-c3nc(C(F)(F)F)cn3C)cc2)n1` [Example 109, 4'-Cyclopropyl-5-isopropoxy-6'-methoxy-N-methyl-N-(4-(1-methyl-4-(trifluoromethyl)-1H-imidazol-2-yl)benzyl)-[2,5'-bipyrimidin]-4-amine]: 0.0483 µM and 0.0053 µM.
In the case of `COc1cnc(-c2c(C)ncnc2OC2CC2)nc1N(C)C[C@H]1CC[C@H](c2nc(C(F)(F)F)cn2C)CC1` [Example S32], the IC50 was determined as 0.235 µM in experiment [1] (setting [3]) and 0.106 µM in experiment [2].
The matching figures for `COc1cnc(-c2c(Cl)cnn2C(C)C)nc1N(C)CC12CCC(c3nc(C(F)(F)F)cn3C(C)C)(CC1)OC2` [Example S13, 2-(4-Chloro-1-isopropyl-1H-pyrazol-5-yl)-N-((1-(1-isopropyl-4-(trifluoromethyl)-1H-imidazol-2-yl)-2-oxabicyclo[2.2.2]oct-4-yl)methyl)-5-methoxy-N-methylpyrimidin-4-amine]: 0.0608 µM and 0.013 µM.
For `COc1cnc(-c2ccccc2C(C)C)nc1NCc1ccc(-c2ccc(C)cn2)cc1` [Example 66, 2-(2-Isopropylphenyl)-5-methoxy-N-(4-(5-methylpyridin-2-yl)benzyl)pyrimidin-4-amine], in that order: 0.0146 µM and 0.0056 µM.
For the compound `COc1cnc(-c2c(OC)ncnc2C2CC2)nc1NC[C@H]1CC[C@H](c2nc(C(F)(F)F)cn2C)CC1` [Example S20], the IC50 in experiment [1] (setting [3]) was 0.0214 µM; in experiment [2], 0.019 µM.
The matching figures for `COc1cnc(-c2c(OC)ncnc2C2CC2)nc1N(C)Cc1ccc(-c2ccccn2)cc1` [Example 19, 4'-Cyclopropyl-5,6'-dimethoxy-N-methyl-N-(4-(pyridin-2-yl)benzyl)-[2,5'-bipyrimidin]-4-amine]: 0.0012 µM and 0.024 µM.
In the case of `COc1cnc(-c2c(OC)ncnc2C2CC2)nc1N(C)CC12C3C4C1C1C2C3C41c1nc(C(F)(F)F)cn1C` (stereo not drawn) [Example S51, 4'-cyclopropyl-5,6'-dimethoxy-N-methyl-N-((4-(1-methyl-4-(trifluoromethyl)-1H-imidazol-2-yl)cuban-1-yl)methyl)-[2,5'-bipyrimidin]-4-amine], the IC50 in experiment [1] came to 0.0058 µM; in experiment [2], 0.0038 µM.
With `COc1cc(CNc2nc(-c3c(OC)ncnc3C3CC3)nc3ccoc23)ccc1-c1nc(C(F)(F)F)cn1C` [Example 120, 2-(4-Cyclopropyl-6-methoxypyrimidin-5-yl)-N-(3-methoxy-4-(1-methyl-4-(trifluoromethyl)-1H-imidazol-2-yl)benzyl)furo[3,2-d]pyrimidin-4-amine], the half-maximal inhibitory concentration (IC50) in experiment [1] (setting [3]) turned out to be 0.0505 µM; in experiment [2] it was 0.0089 µM.
For `COc1cc(-n2nc(C(F)(F)F)cc2C)ccc1CNc1nc(-c2c(OC)ncnc2C2CC2)nc2ccoc12` [Example 121, 2-(4-Cyclopropyl-6-methoxypyrimidin-5-yl)-N-(2-methoxy-4-(5-methyl-3-(trifluoromethyl)-1H-pyrazol-1-yl)benzyl)furo[3,2-d]pyrimidin-4-amine], in that order: 0.0239 µM and 0.0083 µM.
The matching figures for `COc1cnc(-c2ccccc2C(C)C)nc1NCc1ccc(-c2nccn3ccnc23)cc1` [Example 11, N-(4-(Imidazo[1,2-a]pyrazin-8-yl)benzyl)-2-(2-isopropylphenyl)-5-methoxypyrimidin-4-amine]: 0.751 µM and 0.022 µM.
The matching figures for `COc1cnc(-c2c(OC)ncnc2C2CC2)nc1N(C)C[C@H]1CC[C@H](c2nc(C(F)(F)F)cn2C(C)C)CC1` [Example S26, 4'-Cyclopropyl-N-(((1R,4R)-4-(1-isopropyl-4-(trifluoromethyl)-1H-imidazol-2-yl)cyclohexyl)methyl)-5,6'-dimethoxy-N-methyl-[2,5'-bipyrimidin]-4-amine]: 0.0143 µM and 0.013 µM.
As for `Cc1cc(C(F)(F)F)nn1-c1ccc(CN2C(=O)COc3cnc(-c4ccccc4C(C)C)nc32)cc1` [Example 15, 2-(2-Isopropylphenyl)-8-(4-(5-methyl-3-(trifluoromethyl)-1H-pyrazol-1-yl)benzyl)-6H-pyrimido[5,4-b][1,4]oxazin-7(8H)-one], the IC50 in experiment [1] (setting [3]) came out at 0.301 µM; in experiment [2], 0.0068 µM.
For `COc1cc(-n2nc(C(F)(F)F)cc2C)ccc1CNc1nc(-c2ccccc2C(C)C)nc2ccoc12` [Example 83, 2-(2-Isopropylphenyl)-N-(2-methoxy-4-(5-methyl-3-(trifluoromethyl)-1H-pyrazol-1-yl)benzyl)furo[3,2-d]pyrimidin-4-amine], in that order: 0.0991 µM and 0.0044 µM.
For `COc1cnc(-c2ccccc2C(C)C)nc1N(C)CC1CCC(c2ccccn2)CC1` (stereo not drawn) [Example 61, 2-(2-isopropylphenyl)-5-methoxy-N-methyl-N-((4-(pyridin-2-yl)cyclohexyl)methyl)pyrimidin-4-amine], in that order: 0.813 µM and 0.011 µM.
Consider `CC(C)c1ccccc1-c1ncc(N2CCN(C)CC2)c(NCc2ccc(-c3nc(C(F)(F)F)cn3C)cc2)n1` [Example 88, 2-(2-Isopropylphenyl)-N-(4-(1-methyl-4-(trifluoromethyl)-1H-imidazol-2-yl)benzyl)-5-(4-methylpiperazin-1-yl)pyrimidin-4-amine], for which the IC50 in experiment [1] (setting [3]) came out at 0.157 µM; in experiment [2] it was 0.01 µM.
The matching figures for `COc1cnc(-c2ccccc2C(C)C)nc1N(C)Cc1ccc(-c2nc(C(F)(F)F)cn2C)cc1` [Example 3, 2-(2-Isopropylphenyl)-5-methoxy-N-methyl-N-(4-(1-methyl-4-(trifluoromethyl)-1H-imidazol-2-yl)benzyl)pyrimidin-4-amine]: 0.0064 µM and 0.0028 µM.
For `COc1ncnc(C2CC2)c1-c1ncc(F)c(N(C)Cc2ccc(-c3nc(C(F)(F)F)cn3C(C)C)cc2)n1` [Example 127, 4'-Cyclopropyl-5-fluoro-N-(4-(1-isopropyl-4-(trifluoromethyl)-1H-imidazol-2-yl)benzyl)-6'-methoxy-N-methyl-[2,5'-bipyrimidin]-4-amine], in that order: 0.0122 µM and 0.0042 µM.
In the case of `CC(C)c1ccccc1-c1nc(NCc2ccc(-c3ccccn3)cc2)c2[nH]ccc2n1` [Example 36, 2-(2-Isopropylphenyl)-N-(4-(pyridin-2-yl)benzyl)-5H-pyrrolo[3,2-d]pyrimidin-4-amine], the IC50 in experiment [1] (setting [3]) stood at 0.95 µM; in experiment [2] it was 0.0224 µM.
For `COc1cnc(-c2c(OC)ncnc2OC)nc1N(C)C[C@H]1CC[C@H](c2nc(C(F)(F)F)cn2C2CC2)CC1` [Example S30, N-(((1R,4R)-4-(1-cyclopropyl-4-(trifluoromethyl)-1H-imidazol-2-yl)cyclohexyl)methyl)-4',5,6'-trimethoxy-N-methyl-[2,5'-bipyrimidin]-4-amine], the IC50 in experiment [1] (setting [3]) worked out at 0.0319 µM; in experiment [2] it was 0.012 µM.
The matching figures for `COc1cnc(-c2c(Cl)cnn2C2CC2)nc1N(C)Cc1ccc(-c2nc(C(F)(F)F)cn2C)cc1` [Example 191, 2-(4-Chloro-1-cyclopropyl-1H-pyrazol-5-yl)-5-methoxy-N-methyl-N-(4-(1-methyl-4-(trifluoromethyl)-1H-imidazol-2-yl)benzyl)pyrimidin-4-amine]: 0.0107 µM and 0.0043 µM.
The matching figures for `COc1cnc(-c2c(C)cnn2C2CC2)nc1NCc1ccc(-c2nc(C(F)(F)F)cn2C)cc1` [Example 199, 2-(1-Cyclopropyl-4-methyl-1H-pyrazol-5-yl)-5-methoxy-N-(4-(1-methyl-4-(trifluoromethyl)-1H-imidazol-2-yl)benzyl)pyrimidin-4-amine]: 0.0287 µM and 0.0056 µM.
For `CC(C)Oc1cnc(-c2ccccc2C(C)C)nc1N(C)CC1CCN(c2nc(C(F)(F)F)cn2C)CC1` [Example 70, 5-Isopropoxy-2-(2-isopropylphenyl)-N-methyl-N-((1-(1-methyl-4-(trifluoromethyl)-1H-imidazol-2-yl)piperidin-4-yl)methyl)pyrimidin-4-amine], in that order: 0.6 µM and 0.0194 µM.
On to `COc1cnc(-c2c(Cl)cnn2C(C)C)nc1N(C)CC1CCN(c2ccccn2)CC1` [Example 161, 2-(4-Chloro-1-isopropyl-1H-pyrazol-5-yl)-5-methoxy-N-methyl-N-((1-(pyridin-2-yl)piperidin-4-yl)methyl)pyrimidin-4-amine], for which the IC50 in experiment [1] (setting [3]) came out at 0.537 µM; in experiment [2] it was 0.006 µM.
As for `COc1cc(-c2nc(C(F)(F)F)cn2C)ccc1CNc1nc(-c2c(OC)ncnc2C2CC2)ncc1OC(F)F` [Example 136, 4'-Cyclopropyl-5-(difluoromethoxy)-6'-methoxy-N-(2-methoxy-4-(1-methyl-4-(trifluoromethyl)-1H-imidazol-2-yl)benzyl)-[2,5'-bipyrimidin]-4-amine], the values for the IC50 in experiment [1] (setting [3]) and in experiment [2] were 0.0249 µM and 0.017 µM, respectively.
